Experimental findings from patent publication EP4755877A1, “MODIFIED FLAVONE COMPOUNDS AND USE THEREOF” (Suzhou Glenkol Pharma Technology Co., Ltd., priority 2023, dated 2025) are described below.

Where two headings read alike, the source gives them in different places.

One series concerns PC-12 cells. Put plainly: Glutamate-induced excitotoxic death of PC-12 cells, survival by propidium iodide/Hoechst staining. In kind it is cell-based, rat. To be noted: for Enhancement of Cell Survival Rate: PC-12 cells, glutamate-induced death, compound at 100 nM; for EC50: Rattus norvegicus, promotion of PC-12 survival under glutamate stimulation, 30 min pretreatment, 1 pM-100 µM, 24 h glutamate. The method, then:
PC-12 cells (a […] cell line derived from rat adrenal medulla) were cultured in DMEM/F12 complete medium until 80-90% confluency. After being digested, collected, and resuspended, the cells were seeded into 24-well plates pre-coated with coverslips at a density of 5×10^4 cells per well. Following 26 hours of cell culture, glutamate-induced excitotoxic cell death modeling was performed. The modeling method was as follows: an appropriate amount of glutamate was weighed and dissolved in DMEM/F12 medium to prepare a stock solution; after filtration, the stock solution was diluted with the same medium, and the cells were administered with the diluted solution by medium replacement. After administration, the cells were further incubated for 24 hours.
Prior to glutamate modeling, cells incubated in the previous step were pretreated with small-molecule compounds listed in Table 1 at concentrations of 1 pM, 10 pM, 100 pM, 1 nM, 10 nM, 100 nM, 1 µM, 10 µM, and 100 µM for 30 minutes, followed by glutamate stimulation.
The cells treated with the compounds were stained with propidium iodide to assess cell death. After the medium was discarded, the cells were washed with PBS. Subsequently, propidium iodide/Hoechst was added. Following incubation for 30 minutes, the staining solution was removed, and the cells were washed with PBS again before being fixed and mounted on slides. Image acquisition was performed under a fluorescence microscope. The propidium iodide-positive cells and Hoechst-positive cells in the collected images were counted to calculate the cell survival rate. The survival rate was calculated using the formula: Cell survival rate = (1 - Number of Propidium Iodide-positive cells / Number of Hoechst-positive cells) × 100%. The gradient concentrations of the small molecule compounds and the corresponding normalized survival rates were imported into Prism software, and EC50 values were calculated using a non-linear regression model. 7,8-dihydroxyflavone was used as the positive control drug. Table 1: Dose-response relationship study of various compounds in promoting PC-12 neurocytes survival
Based on the aforementioned dose-response relationship study of the compounds, the inhibitory effects of different small molecule compounds on glutamate-induced excitotoxic death of PC-12 cells were further compared at the same dose (100 nM). Table 2: Study on the promoting effects of various compounds on PC-12 neurocytes survival

Series [1] is described as follows: Pharmacokinetics in rats after intravenous and oral gavage dosing, plasma LC-MS/MS. Format: in vivo. To be noted: rat. Here is the method:
Preparation of intravenous bolus administration formulations: A graduation line for the final volume was marked on a clean and dry container. An appropriate amount of the test sample was weighed and added to the container to prepare a solution with a final concentration of 1 mg/mL.
Preparation of oral gavage administration formulations: A graduation line for the final volume was marked on a clean and dry container. An appropriate amount of the test sample was weighed and added to the container to prepare a solution with a final concentration of 3 mg/mL.
After preparation, the formulations were stored at room temperature and used on the day of preparation. A total of 2 groups of rats were set up, with […] per group (half male and half female). The compounds were administered to the rats at a dose of 1 mg/kg via intravenous injection and 15 mg/kg via oral gavage, respectively. All animals were allowed free access to food and water.
Intravenous administration: Before administration (0 h) and at 0.083, 0.167, 0.5, 1.0, 2.0, 4.0, 6.0, and 24 h after administration, 0.2 mL of blood samples were collected from the jugular vein and transferred to anticoagulant tubes (pre-cooled in advance for at least 5 minutes). The tubes were gently inverted several times to fully mix the blood with the anticoagulant. The blood samples were centrifuged at 4 °C for 10 minutes to separate the plasma. 95 µ L of plasma was collected and transferred to a centrifuge tube, which was stored in a refrigerator at below -80 °C until analysis.
Single oral gavage administration: Before administration (0 h) and at 0.167, 0.5, 1.0, 2.0, 4.0, 6.0, and 24 h after administration, 0.2 mL of blood samples were collected from the jugular vein and transferred to anticoagulant tubes. The sample processing method was the same as described above.
The concentration of the compounds in plasma was determined by LC-MS/MS, and data acquisition was performed using Analyst 1.6.3 software (AB Sciex). The pharmacokinetic parameters of the rats after administration were calculated using the non-compartmental model in Phoenix WinNonlin software.
7,8-dihydroxyflavone served as the control drug for comparing the pharmacokinetic characteristics of various compound. Table 3: PK parameters of various compound

Where [2] appears, read: both sexes, Sprague-Dawley, SD rats, plasma, 15 mg/kg oral gavage / 1 mg/kg intravenous, table does not state the route.
Where [3] appears, read: in vivo, SD rats, plasma, 15 mg/kg oral gavage / 1 mg/kg intravenous, table does not state the route.
Where [4] appears, read: in vivo, SD rats, 15 mg/kg oral gavage vs 1 mg/kg intravenous, read-out: Oral Bioavailability F (%).
[5] abbreviates: in vivo, SD rats, plasma, 15 mg/kg oral gavage / 1 mg/kg intravenous, table does not state the route, read-out: t1/2 (converted).

By EC50 is commonly meant the concentration needed to bring the measured effect to its halfway point. By AUC(0-t) is commonly meant the area under the concentration-time curve up to a stated or last time point. Low values mean low exposure, high ones high exposure. What is called Cmax is the maximum level reached in the sampled fluid or tissue. For the molecule `O=c1cc(-c2ccccc2)oc2c(O)c(O)ccc12` [7,8-dihydroxyflavone, 7,8-dihydroxyflavone, reference compound], in the series on PC-12 cells, the “Enhancement of Cell Survival Rate” value is recorded as 33.58% and the EC50 was determined as 159 pM. Moreover, the bioavailability in series [1] (both sexes, Sprague-Dawley, plasma, SD rats, 15 mg/kg oral gavage vs 1 mg/kg intravenous, read-out: Oral Bioavailability F (%)) came out at 1.9%. In series [1] (setting [2]), this molecule showed an area under the curve AUC(0-t) of 0.1 µM·h and a Cmax of 75.1 nM. The half-life in series [1] (both sexes, Sprague-Dawley, SD rats, plasma, 15 mg/kg oral gavage / 1 mg/kg intravenous, table does not state the route, read-out: t1/2 (converted)) was 3.32 h.
In the case of `O=c1cc(-c2ccccc2)oc2c(F)c(O)ccc12` [Compound S1], the EC50 in the series on PC-12 cells came to 12 pM. Also, in series [1] (setting [3]), the AUC(0-t) stood at 0.181 µM·h and the Cmax stood at 94.9 nM.
For `O=C(O)[C@H]1O[C@@H](Oc2c(O)ccc3c(=O)cc(-c4ccccc4)oc23)[C@H](O)[C@@H](O)[C@@H]1O` [Compound S7], in the series on PC-12 cells, the EC50 was 11.1 pM. In addition, in series [1] (setting [3]), the AUC(0-t) stood at 2.36 µM·h and the concentration peaked (Cmax) at 245 nM. Also, the bioavailability in series [1] (setting [4]) amounted to 66.9%.
`O=c1cc(C2CCNCC2)oc2c(O)c(O)ccc12` [Compound S12]: in the series on PC-12 cells, the concentration giving a half-maximal response (EC50) was < 1 pM. In series [1] (setting [3]), this molecule yielded an AUC(0-t) of 0.151 µM·h and a Cmax of 113 nM. In series [1] (setting [5]), the half-life is 1.84 h. The bioavailability in series [1] (setting [4]) was 1.9%.
For the molecule `[2H]c1c([2H])c([2H])c(-c2cc(=O)c3ccc(O[C@@H]4O[C@H](C(=O)O)[C@@H](O)[C@H](O)[C@H]4O)c(O)c3o2)c([2H])c1[2H]` [Compound S25], the highest level in series [1] (setting [3]) (Cmax) was 3590 nM. Further, the half-life in series [1] (setting [5]) is 5.38 h. The bioavailability in series [1] (setting [4]) was determined as 52%.
With `O=c1cc(C2CCNCC2)oc2c(F)c(O)ccc12` [Compound S26], in series [1] (setting [3]), the AUC(0-t) was 0.252 µM·h and the Cmax is 68.1 nM. Further, in series [1] (setting [5]), the half-life is 4.54 h.
As to `O=c1cc(C2CCNCC2)oc2c(O[C@@H]3OC[C@@H](O)[C@H](O)[C@H]3O)c(O)ccc12` [Compound S27], the half-life in series [1] (in vivo) is 1.77 h.
Take `O=c1cc(C2CCNCC2)oc2c(O[C@@H]3O[C@H](CO)[C@@H](O)[C@H](O)[C@H]3O)c(O)ccc12` [Compound S28]: in the series on PC-12 cells, the “Enhancement of Cell Survival Rate” value was 43.06%. This molecule had a half-life in series [1] (in vivo) of 16.7 h. In series [1] (in vivo, po, 15 mg/kg), the bioavailability is 2.72%.
As to `COc1ccc2c(=O)cc(C3CCNCC3)oc2c1O` [Compound S29], the “Enhancement of Cell Survival Rate” value with PC-12 cells is given as 73.51%. In series [1] (setting [3]), the AUC(0-t) turned out to be 0.331 µM·h and the Cmax was determined as 91.3 nM. Besides, the half-life in series [1] (setting [5]) was 2.57 h. Also, in series [1] (setting [4]), the bioavailability came out at 3.38%.
Take `O=c1cc(C2CCNCC2)oc2c(F)c(F)ccc12` [Compound S30]: in the series with PC-12 cells, the “Enhancement of Cell Survival Rate” value is 83.78%. Also, in series [1] (setting [3]), the AUC(0-t) is 10.3 µM·h and the Cmax amounted to 1260 nM. For the same molecule, the half-life in series [1] (setting [5]) is 11.4 h. The bioavailability in series [1] (setting [4]) worked out at 112%.
